Series [1] deals with Puccinia Recondite f. Sp. Tritici. Nature of the series: Fungicidal activity against Puccinia recondita f. sp. tritici / wheat / leaf disc curative (brown rust). It is filed as in vivo. The following applies: foliar, 24 h, 200 ppm in the applied formulation, wheat leaf segments cv. Kanzler, applied 1 day after inoculation, compared to untreated, read-out: disease control. As to the method: (§1) General examples of leaf disk tests in well plates: Leaf disks or leaf segments of various plant species are cut from plants grown in a greenhouse. The cut leaf disks or segments are placed in multiwell plates (24-well format) onto water agar. The leaf disks are sprayed with a test solution before (preventative) or after (curative) inoculation. Compounds to be tested are prepared as DMSO solutions (max. 10 mg/ml) which are diluted to the appropriate concentration with 0.025% Tween20 just before spraying. The inoculated leaf disks or segments are incubated under defined conditions (temperature, relative humidity, light, etc.) according to the respective test system. A single evaluation of disease level is carried out 3 to 14 days after inoculation, depending on the pathosystem. Percent disease control relative to the untreated check leaf disks or segments is then calculated. General examples of liquid culture tests in well plates: Mycelia fragments or conidia suspensions of a fungus prepared either freshly from liquid cultures of the fungus or from cryogenic storage, are directly mixed into nutrient broth. DMSO solutions of the test compound (max. 10 mg/ml) are diluted with 0.025% Tween20 by a factor of 50 and 10 μl of this solution is pipetted into a microtiter plate (96-well format). The nutrient broth containing the fungal spores/mycelia fragments is then added to give an end concentration of the tested compound. The test plates are incubated in the dark at 24° C. and 96% relative humidity. The inhibition of fungal growth is determined photometrically after 2 to 7 days, depending on the pathosystem, and percent antifungal activity relative to the untreated check is calculated.
Example 2: Fungicidal Activity Against Puccinia Recondite f. Sp. Tritici Wheat/Leaf Disc Curative (Brown Rust)
Wheat leaf segments cv. Kanzler are placed on agar in multiwell plates (24-well format). The leaf segments are then inoculated with a spore suspension of the fungus. Plates were stored in darkness at 19° C. and 75% relative humidity. The formulated test compound diluted in water was applied 1 day after inoculation. The leaf segments were incubated at 19° C. and 75% relative humidity under a light regime of 12 hours light/12 hours darkness in a climate cabinet and the activity of a compound was assessed as percent disease control compared to untreated when an appropriate level of disease damage appears in untreated check leaf segments (6 to 8 days after application).
(§2) The following compounds at 200 ppm in the applied formulation give at least 80% disease control in this test when compared to untreated control leaf disks under the same conditions, which show extensive disease development.

In the next series the test system is Phakopsora pachyrhizi. Nature of the series: Fungicidal activity against Phakopsora pachyrhizi / soybean / leaf disc preventative (Asian soybean rust). It is filed as in vivo. The following applies: foliar, 200 ppm in the applied formulation, soybean leaf disks, inoculated one day after application, compared to untreated, read-out: disease control. Here is the method:
as §1
Example 3: Fungicidal Activity Against Phakopsora pachyrhizi/Soybean/Leaf Disc Preventative (Asian Soybean Rust)
Soybean leaf disks are placed on water agar in multiwell plates (24-well format) and sprayed with the formulated test compound diluted in water. One day after application leaf discs are inoculated by spraying a spore suspension on the lower leaf surface. After an incubation period in a climate cabinet of 24-36 hours in darkness at 20° C. and 75% rh leaf disc are kept at 20° C. with 12 h light/day and 75% rh. The activity of a compound is assessed as percent disease control compared to untreated when an appropriate level of disease damage appears in untreated check leaf disks (12 to 14 days after application).
as §2

For series [2], the system named is Glomerella Lagenarium (Colletotrichum Lagenarium). Nature of the series: Fungicidal activity against Glomerella lagenarium (Colletotrichum lagenarium) liquid culture / cucumber / preventative (anthracnose). It is filed as cell-based. Conditions: Colletotrichum orbiculare; 20 ppm in the applied formulation; liquid culture in PDB, growth inhibition measured photometrically 3 to 4 days after application; compared to untreated; read-out: disease control. Here is the method: as §1
Example 4: Fungicidal Activity Against Glomerella Lagenarium (Colletotrichum Lagenarium) Liquid Culture/Cucumber/Preventative (Anthracnose)
Conidia of the fungus from cryogenic storage are directly mixed into nutrient broth (PDB—potato dextrose broth). After placing a (DMSO) solution of test compound into a microtiter plate (96-well format), the nutrient broth containing the fungal spores is added. The test plates are incubated at 24° C. and the inhibition of growth is measured photometrically 3 to 4 days after application.
The following compounds at 20 ppm in the applied formulation give at least 80% disease control in this test when compared to untreated control under the same conditions, which show extensive disease development.

Series [3] concerns Puccinia recondita f, Sp. Tritici. The experiment in a line: Fungicidal activity against Puccinia recondita f. sp. tritici / wheat / leaf disc preventative (brown rust). Type of series: in vivo. Conditions: foliar, 200 ppm in the applied formulation, wheat leaf segments cv. Kanzler, inoculated 1 day after application, compared to untreated, read-out: disease control. As to the method: as §1
Example 1: Fungicidal Activity Against Puccinia recondita f, Sp. Tritici/Wheat/Leaf Disc Preventative (Brown Rust)
Wheat leaf segments cv. Kanzler were placed on agar in multiwell plates (24-well format) and sprayed with the formulated test compound diluted in water. The leaf disks were inoculated with a spore suspension of the fungus 1 day after application. The inoculated leaf segments were incubated at 19° C. and 75% relative humidity (rh) under a light regime of 12 hours light/12 hours darkness in a climate cabinet and the activity of a compound was assessed as percent disease control compared to untreated when an appropriate level of disease damage appears in untreated check leaf segments (7 to 9 days after application).
as §2

In general, melting point refers to the temperature of the solid-liquid transition.

On to `O=C(NCc1ccc(-c2noc(C(F)(F)F)n2)cc1)NC1CC1` [Compound 2.3, 1-cyclopropyl-3-[[4-[5-(trifluoromethyl)-1,2,4-oxadiazol-3-yl]phenyl]methyl]urea], for which the melting point was in the range of 176 to 180.1 °C. For the same compound, the pest or weed control at 200 ppm in series [1] was no less than 80%. For the same compound, the pest or weed control at 200 ppm in the series with Phakopsora pachyrhizi is no less than 80%. Moreover, the inhibition of growth at 20 ppm in series [2] is no less than 80%. In addition, the pest or weed control at 200 ppm in series [3] was no less than 80%.
For `O=C(NCc1ccc(-c2noc(C(F)(F)F)n2)cc1F)NC1CC1` [Compound 2.4, 1-cyclopropyl-3-[[2-fluoro-4-[5-(trifluoromethyl)-1,2,4-oxadiazol-3-yl]phenyl]methyl]urea], the melting point is 150.1 to 152.4 °C. The pest or weed control at 200 ppm in series [1] was no less than 80%. Moreover, in the series with Phakopsora pachyrhizi, the pest or weed control at 200 ppm is no less than 80%. Also, in series [2], the inhibition of growth at 20 ppm is no less than 80%. The pest or weed control at 200 ppm in series [3] is no less than 80%.
The compound `O=C(NCc1ccc(-c2noc(C(F)(F)F)n2)c(F)c1)NC1CC1` [Compound 2.20, 1-cyclopropyl-3-[[3-fluoro-4-[5-(trifluoromethyl)-1,2,4-oxadiazol-3-yl]phenyl]methyl]urea] came in with a melting point of 169 to 173 °C. Further, in series [1], the pest or weed control at 200 ppm is no less than 80%. Besides, in the series with Phakopsora pachyrhizi, the pest or weed control at 200 ppm was no less than 80%. Besides, the inhibition of growth at 20 ppm in series [2] is no less than 80%. In addition, the pest or weed control at 200 ppm in series [3] is no less than 80%.
Turning to `O=C(NCc1ccc(-c2noc(C(F)(F)F)n2)cc1)n1ccnc1` [Compound 3.1, N-[[4-[5-(trifluoromethyl)-1,2,4-oxadiazol-3-yl]phenyl]methyl] imidazole-1-carboxamide], the melting point fell in the range of 97 to 102 °C. In series [1], the pest or weed control at 200 ppm was no less than 80%. In the series with Phakopsora pachyrhizi, the pest or weed control at 200 ppm is no less than 80%. Also, the inhibition of growth at 20 ppm in series [2] is no less than 80%. The pest or weed control at 200 ppm in series [3] is no less than 80%.
As for `O=C(NCc1ccc(-c2noc(C(F)(F)F)n2)cc1)N1CCOCC1` [Compound 3.2, N-[[4-[5-(trifluoromethyl)-1,2,4-oxadiazol-3-yl]phenyl]methyl] morpholine-4-carboxamide], the melting point fell in the range of 112 to 115 °C. Further, the pest or weed control at 200 ppm in series [1] was no less than 80%. Moreover, the pest or weed control at 200 ppm in the series with Phakopsora pachyrhizi is no less than 80%. Moreover, the inhibition of growth at 20 ppm in series [2] is no less than 80%. Besides, the pest or weed control at 200 ppm in series [3] was no less than 80%.

The values are drawn from patent publication US20190364899A1, “MICROBIOCIDAL OXADIAZOLE DERIVATIVES” (SYNGENTA PARTICIPATIONS AG, priority 2015, published 2019).
